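Five compound concentrations were applied to cells in 96-well plates for 48 hours; endpoints were derived by simple linear interpolation of the resulting dose-response curve. The concentration for full growth arrest is given as TGI.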
Assays:
Test in all cases: DTP human tumour cell line panel, 48 h
OVCAR-3 ovarian = system: OVCAR-3 ovarian
NCI-H522 lung = system: NCI-H522 lung
NCI-H460 lung = system: NCI-H460 lung
CCRF-CEM leukemia = system: CCRF-CEM leukemia
MALME-3M melanoma = system: MALME-3M melanoma
MOLT-4 leukemia = system: MOLT-4 leukemia
SN12C renal = system: SN12C renal
BT-549 breast = system: BT-549 breast
UO-31 renal = system: UO-31 renal
HOP-92 NSCLC = system: HOP-92 NSCLC
HL-60(TB) leukemia = system: HL-60(TB) leukemia
MDA-N = system: MDA-N
NCI/ADR-RES ovarian = system: NCI/ADR-RES ovarian
HCT-116 colon = system: HCT-116 colon
UACC-257 melanoma = system: UACC-257 melanoma
K-562 leukemia = system: K-562 leukemia
SNB-19 CNS = system: SNB-19 CNS
MDA-MB-231 breast = system: MDA-MB-231 breast
KM12 colon = system: KM12 colon
U251 CNS = system: U251 CNS
IGROV1 ovarian = system: IGROV1 ovarian
RXF 393 renal = system: RXF 393 renal
SF-539 CNS = system: SF-539 CNS
OVCAR-8 ovarian = system: OVCAR-8 ovarian
EKVX NSCLC = system: EKVX NSCLC
M14 melanoma = system: M14 melanoma
SK-MEL-5 melanoma = system: SK-MEL-5 melanoma
A549 NSCLC = system: A549 NSCLC
TK-10 renal = system: TK-10 renal
CAKI-1 renal = system: CAKI-1 renal
HCC-2998 colon = system: HCC-2998 colon
PC-3 prostate = system: PC-3 prostate
HS 578T breast = system: HS 578T breast
LOX IMVI melanoma = system: LOX IMVI melanoma
NCI-H23 lung = system: NCI-H23 lung
MDA-MB-435 = system: MDA-MB-435
T-47D breast = system: T-47D breast
COLO 205 colon = system: COLO 205 colon
SF-295 CNS = system: SF-295 CNS
SNB-75 CNS = system: SNB-75 CNS
HCT-15 colon = system: HCT-15 colon
NCI-H226 lung = system: NCI-H226 lung
MCF7 breast = system: MCF7 breast
SR leukemia = system: SR leukemia
SW-620 colon = system: SW-620 colon
SK-MEL-28 melanoma = system: SK-MEL-28 melanoma
DU-145 prostate = system: DU-145 prostate
HT29 colon = system: HT29 colon
OVCAR-5 ovarian = system: OVCAR-5 ovarian
HOP-62 NSCLC = system: HOP-62 NSCLC
786-0 renal = system: 786-0 renal
SK-OV-3 ovarian = system: SK-OV-3 ovarian
ACHN renal = system: ACHN renal
A498 renal = system: A498 renal
OVCAR-4 ovarian = system: OVCAR-4 ovarian
SK-MEL-2 melanoma = system: SK-MEL-2 melanoma
RPMI-8226 leukemia = system: RPMI-8226 leukemia
SF-268 CNS = system: SF-268 CNS
UACC-62 melanoma = system: UACC-62 melanoma
SNB-78 CNS = system: SNB-78 CNS
DMS 114 small cell lung = system: DMS 114 small cell lung
LXFL 529 NSCLC = system: LXFL 529 NSCLC
DMS 273 small cell lung = system: DMS 273 small cell lung
KM20L2 colon = system: KM20L2 colon
M19-MEL melanoma = system: M19-MEL melanoma
HOP-18 NSCLC = system: HOP-18 NSCLC

With CC1(C)C2C=C(CCN3CCOCC3)CC1C2 (configuration not stated) the TGI (OVCAR-3 ovarian) was over 100 µM, the TGI (NCI-H522 lung) was over 100 µM and the TGI (NCI-H460 lung) was over 100 µM. It also gave a TGI (CCRF-CEM leukemia) of over 100 µM, a TGI (MALME-3M melanoma) of over 100 µM and a TGI (MOLT-4 leukemia) of over 100 µM. The TGI (SN12C renal) was over 100 µM, the TGI (BT-549 breast) was over 100 µM and the TGI (UO-31 renal) was over 100 µM. It also gave a TGI (HOP-92 NSCLC) of over 100 µM, a TGI (HL-60(TB) leukemia) of over 100 µM and a TGI (MDA-N) of over 100 µM. The TGI (NCI/ADR-RES ovarian) was over 100 µM, the TGI (HCT-116 colon) was over 100 µM and the TGI (UACC-257 melanoma) was over 100 µM. The TGI (K-562 leukemia) was over 100 µM, the TGI (SNB-19 CNS) was over 100 µM and the TGI (MDA-MB-231 breast) was over 100 µM. The TGI (KM12 colon) was over 100 µM, the TGI (U251 CNS) was over 100 µM and the TGI (IGROV1 ovarian) was over 100 µM. For the same compound, the TGI (RXF 393 renal) was over 100 µM, the TGI (SF-539 CNS) was over 100 µM and the TGI (OVCAR-8 ovarian) was over 100 µM. For the same compound, the TGI (EKVX NSCLC) was over 100 µM, the TGI (M14 melanoma) was over 100 µM and the TGI (SK-MEL-5 melanoma) was over 100 µM. It also gave a TGI (A549 NSCLC) of over 100 µM, a TGI (TK-10 renal) of over 100 µM and a TGI (CAKI-1 renal) of over 100 µM. It also gave a TGI (HCC-2998 colon) of over 100 µM, a TGI (PC-3 prostate) of over 100 µM and a TGI (HS 578T breast) of over 100 µM. The TGI (LOX IMVI melanoma) was over 100 µM, the TGI (NCI-H23 lung) was over 100 µM and the TGI (MDA-MB-435) was over 100 µM. The TGI (T-47D breast) was over 100 µM, the TGI (COLO 205 colon) was over 100 µM and the TGI (SF-295 CNS) was over 100 µM. For the same compound, the TGI (SNB-75 CNS) was over 100 µM, the TGI (HCT-15 colon) was over 100 µM and the TGI (NCI-H226 lung) was over 100 µM. For the same compound, the TGI (MCF7 breast) was over 100 µM, the TGI (SR leukemia) was over 100 µM and the TGI (SW-620 colon) was over 100 µM. It also gave a TGI (SK-MEL-28 melanoma) of over 100 µM, a TGI (DU-145 prostate) of over 100 µM and a TGI (HT29 colon) of over 100 µM. The TGI (OVCAR-5 ovarian) was over 100 µM, the TGI (HOP-62 NSCLC) was over 100 µM and the TGI (786-0 renal) was over 100 µM. For the same compound, the TGI (SK-OV-3 ovarian) was over 100 µM, the TGI (ACHN renal) was over 100 µM and the TGI (A498 renal) was over 100 µM. For the same compound, the TGI (OVCAR-4 ovarian) was over 100 µM, the TGI (SK-MEL-2 melanoma) was over 100 µM and the TGI (RPMI-8226 leukemia) was over 100 µM. It also gave a TGI (SF-268 CNS) of over 100 µM and a TGI (UACC-62 melanoma) of over 100 µM.

Cc1cc(C)n(-c2nsc3ccccc23)n1 was tested, and the TGI (OVCAR-3 ovarian) was over 100 µM, the TGI (SNB-78 CNS) was over 100 µM and the TGI (NCI-H460 lung) was over 100 µM. It also gave a TGI (CCRF-CEM leukemia) of over 100 µM, a TGI (MOLT-4 leukemia) of over 100 µM and a TGI (SN12C renal) of over 100 µM. The TGI (UO-31 renal) was over 100 µM, the TGI (DMS 114 small cell lung) was over 100 µM and the TGI (HOP-92 NSCLC) was over 100 µM. It also gave a TGI (HL-60(TB) leukemia) of over 100 µM, a TGI (HCT-116 colon) of over 100 µM and a TGI (UACC-257 melanoma) of over 100 µM. The TGI (K-562 leukemia) was over 100 µM, the TGI (SNB-19 CNS) was over 100 µM and the TGI (KM12 colon) was over 100 µM. For the same compound, the TGI (U251 CNS) was over 100 µM, the TGI (IGROV1 ovarian) was over 100 µM and the TGI (RXF 393 renal) was over 100 µM. For the same compound, the TGI (SF-539 CNS) was over 100 µM, the TGI (OVCAR-8 ovarian) was over 100 µM and the TGI (EKVX NSCLC) was over 100 µM. For the same compound, the TGI (LXFL 529 NSCLC) was over 100 µM, the TGI (M14 melanoma) was over 100 µM and the TGI (SK-MEL-5 melanoma) was over 100 µM. It also gave a TGI (A549 NSCLC) of over 100 µM, a TGI (TK-10 renal) of over 100 µM and a TGI (HCC-2998 colon) of over 100 µM. For the same compound, the TGI (LOX IMVI melanoma) was over 100 µM, the TGI (DMS 273 small cell lung) was over 100 µM and the TGI (NCI-H23 lung) was over 100 µM. For the same compound, the TGI (COLO 205 colon) was over 100 µM, the TGI (SNB-75 CNS) was 98.3 µM and the TGI (HCT-15 colon) was over 100 µM. For the same compound, the TGI (SR leukemia) was over 100 µM, the TGI (KM20L2 colon) was over 100 µM and the TGI (SW-620 colon) was over 100 µM. The TGI (SK-MEL-28 melanoma) was over 100 µM, the TGI (HT29 colon) was over 100 µM and the TGI (OVCAR-5 ovarian) was over 100 µM. It also gave a TGI (HOP-62 NSCLC) of over 100 µM, a TGI (ACHN renal) of over 100 µM and a TGI (OVCAR-4 ovarian) of over 100 µM. It also gave a TGI (SK-MEL-2 melanoma) of over 100 µM, a TGI (M19-MEL melanoma) of over 100 µM and a TGI (HOP-18 NSCLC) of over 100 µM. The TGI (RPMI-8226 leukemia) was over 100 µM, the TGI (SF-268 CNS) was over 100 µM and the TGI (UACC-62 melanoma) was over 100 µM.

Reference: PubChem BioAssay (NCI)
